Experiment: xn = mol fraction of the nth substance listed

CCCCCCC + CCCO
viscosity [mPa·s]
Conditions	293.15 K	298.15 K
100 kPa, x1 = 0.0569	–	1.654
100 kPa, x1 = 0.1025	–	1.453
100 kPa, x1 = 0.1996	–	1.138
100 kPa, x1 = 0.3052	–	0.9066
100 kPa, x1 = 0.4045	–	0.75
100 kPa, x1 = 0.5038	–	0.6265
100 kPa, x1 = 0.6039	–	0.5366
100 kPa, x1 = 0.7066	–	0.4713
100 kPa, x1 = 0.8001	–	0.4307
100 kPa, x1 = 0.8488	–	0.4168
100 kPa, x1 = 0.9551	–	0.4008
100 kPa, x2 = 0.1648	–	0.4406
100 kPa, x2 = 0.3402	–	0.5464
100 kPa, x2 = 0.5002	–	0.7014
100 kPa, x2 = 0.6602	–	0.9498
100 kPa, x2 = 0.8383	–	1.294
101 kPa, x1 = 0.0164	–	1.804
101 kPa, x1 = 0.102	1.641	1.477
101 kPa, x1 = 0.2018	1.291	1.166
101 kPa, x1 = 0.299	1.052	0.9499
101 kPa, x1 = 0.4005	0.8426	0.7687
101 kPa, x1 = 0.5017	0.6995	0.6453
101 kPa, x1 = 0.6033	0.5899	0.5511
101 kPa, x1 = 0.7025	0.5126	0.4886
101 kPa, x1 = 0.801	0.4793	0.4419
101 kPa, x1 = 0.8918	0.4475	0.4174
101 kPa, x2 = 0.0584	–	0.39
101 kPa, x2 = 0.1192	–	0.408
101 kPa, x2 = 0.1482	–	0.416
101 kPa, x2 = 0.2647	–	0.454
101 kPa, x2 = 0.3436	–	0.489
101 kPa, x2 = 0.4121	–	0.53
101 kPa, x2 = 0.5026	–	0.606
101 kPa, x2 = 0.5659	–	0.679
101 kPa, x2 = 0.654	–	0.811
101 kPa, x2 = 0.6877	–	0.872
101 kPa, x2 = 0.7447	–	0.994
101 kPa, x2 = 0.8298	–	1.222
101.33 kPa, x1 = 0.0127	–	1.873
101.33 kPa, x2 = 0.0468	–	0.393
101.33 kPa, x2 = 0.0919	–	0.409
101.33 kPa, x2 = 0.0989	–	0.403
101.33 kPa, x2 = 0.2079	–	0.4331
101.33 kPa, x2 = 0.2269	–	0.46
101.33 kPa, x2 = 0.2621	–	0.454
101.33 kPa, x2 = 0.34	–	0.52
101.33 kPa, x2 = 0.362	–	0.4992
101.33 kPa, x2 = 0.4038	–	0.571
101.33 kPa, x2 = 0.4569	–	0.576
101.33 kPa, x2 = 0.521	–	0.682
101.33 kPa, x2 = 0.5667	–	0.69
101.33 kPa, x2 = 0.598	–	0.776
101.33 kPa, x2 = 0.6616	–	0.876
101.33 kPa, x2 = 0.6636	–	0.832

Reference: the CheMixHub viscosity set
